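Each compound was tested at five concentrations against cells in 96-well plates for 48 hours. Abbreviation: GI50, concentration required for 50% inhibition of growth. TGI: concentration producing complete growth inhibition.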
Legend:
Experiment in all cases: DTP human tumour cell line panel, 48 h
NCI-H23 lung = test system: NCI-H23 lung
HCT-15 colon = test system: HCT-15 colon
RPMI-8226 leukemia = test system: RPMI-8226 leukemia
U251 CNS = test system: U251 CNS
UACC-257 melanoma = test system: UACC-257 melanoma
HOP-62 NSCLC = test system: HOP-62 NSCLC
MOLT-4 leukemia = test system: MOLT-4 leukemia
NCI-H226 lung = test system: NCI-H226 lung
SK-MEL-28 melanoma = test system: SK-MEL-28 melanoma
A498 renal = test system: A498 renal
NCI/ADR-RES ovarian = test system: NCI/ADR-RES ovarian
UO-31 renal = test system: UO-31 renal
MDA-MB-435 = test system: MDA-MB-435
DU-145 prostate = test system: DU-145 prostate
786-0 renal = test system: 786-0 renal
SK-MEL-2 melanoma = test system: SK-MEL-2 melanoma
HT29 colon = test system: HT29 colon
OVCAR-8 ovarian = test system: OVCAR-8 ovarian
EKVX NSCLC = test system: EKVX NSCLC
HOP-92 NSCLC = test system: HOP-92 NSCLC
KM12 colon = test system: KM12 colon
NCI-H522 lung = test system: NCI-H522 lung
HS 578T breast = test system: HS 578T breast
T-47D breast = test system: T-47D breast
OVCAR-5 ovarian = test system: OVCAR-5 ovarian
SR leukemia = test system: SR leukemia
OVCAR-4 ovarian = test system: OVCAR-4 ovarian
HCT-116 colon = test system: HCT-116 colon
MDA-MB-231 breast = test system: MDA-MB-231 breast
SK-OV-3 ovarian = test system: SK-OV-3 ovarian
NCI-H460 lung = test system: NCI-H460 lung
RXF 393 renal = test system: RXF 393 renal
BT-549 breast = test system: BT-549 breast
MCF7 breast = test system: MCF7 breast
IGROV1 ovarian = test system: IGROV1 ovarian
SW-620 colon = test system: SW-620 colon
HCC-2998 colon = test system: HCC-2998 colon
OVCAR-3 ovarian = test system: OVCAR-3 ovarian
SNB-75 CNS = test system: SNB-75 CNS
K-562 leukemia = test system: K-562 leukemia
SF-268 CNS = test system: SF-268 CNS
UACC-62 melanoma = test system: UACC-62 melanoma
SK-MEL-5 melanoma = test system: SK-MEL-5 melanoma
TK-10 renal = test system: TK-10 renal
COLO 205 colon = test system: COLO 205 colon
MALME-3M melanoma = test system: MALME-3M melanoma
SF-295 CNS = test system: SF-295 CNS
M14 melanoma = test system: M14 melanoma
CCRF-CEM leukemia = test system: CCRF-CEM leukemia
ACHN renal = test system: ACHN renal
CAKI-1 renal = test system: CAKI-1 renal
SN12C renal = test system: SN12C renal
SNB-19 CNS = test system: SNB-19 CNS
SF-539 CNS = test system: SF-539 CNS
HL-60(TB) leukemia = test system: HL-60(TB) leukemia
A549 NSCLC = test system: A549 NSCLC
PC-3 prostate = test system: PC-3 prostate
LOX IMVI melanoma = test system: LOX IMVI melanoma

`CN1CCN(Cc2ccc(NC(=O)c3cncc(C#Cc4ncc5ccccn45)c3)cc2C(F)(F)F)CC1` showed a GI50 (NCI-H23 lung) of 1340 nM, a TGI (NCI-H23 lung) of 5750 nM and a GI50 (HCT-15 colon) of 1200 nM. The TGI (HCT-15 colon) was 7400 nM, the GI50 (RPMI-8226 leukemia) was 858 nM and the TGI (RPMI-8226 leukemia) was 4150 nM. It also gave a GI50 (U251 CNS) of 2890 nM, a TGI (U251 CNS) of 6390 nM and a GI50 (UACC-257 melanoma) of 1440 nM. The TGI (UACC-257 melanoma) was 4570 nM, the GI50 (HOP-62 NSCLC) was 1450 nM and the TGI (HOP-62 NSCLC) was 4770 nM. The GI50 (MOLT-4 leukemia) was 892 nM, the TGI (MOLT-4 leukemia) was 5820 nM and the GI50 (NCI-H226 lung) was 451 nM. The TGI (NCI-H226 lung) was 3910 nM, the GI50 (SK-MEL-28 melanoma) was 2820 nM and the TGI (SK-MEL-28 melanoma) was 6190 nM. The GI50 (A498 renal) was 2830 nM, the TGI (A498 renal) was 5960 nM and the GI50 (NCI/ADR-RES ovarian) was 2770 nM. For the same compound, the TGI (NCI/ADR-RES ovarian) was 16000 nM, the GI50 (UO-31 renal) was 1250 nM and the TGI (UO-31 renal) was 3720 nM. It also gave a GI50 (MDA-MB-435) of 2010 nM, a TGI (MDA-MB-435) of 5230 nM and a GI50 (DU-145 prostate) of 1350 nM. The TGI (DU-145 prostate) was 4510 nM, the GI50 (786-0 renal) was 3000 nM and the TGI (786-0 renal) was 6400 nM. For the same compound, the GI50 (SK-MEL-2 melanoma) was 876 nM, the TGI (SK-MEL-2 melanoma) was 3820 nM and the GI50 (HT29 colon) was 827 nM. The TGI (HT29 colon) was 8960 nM, the GI50 (OVCAR-8 ovarian) was 2210 nM and the TGI (OVCAR-8 ovarian) was 5420 nM. For the same compound, the GI50 (EKVX NSCLC) was 1300 nM, the TGI (EKVX NSCLC) was 5540 nM and the GI50 (HOP-92 NSCLC) was 762 nM. For the same compound, the TGI (HOP-92 NSCLC) was 2370 nM, the GI50 (KM12 colon) was 11.2 nM and the TGI (KM12 colon) was 2900 nM. The GI50 (NCI-H522 lung) was 1430 nM, the TGI (NCI-H522 lung) was 5580 nM and the GI50 (HS 578T breast) was 688 nM. The TGI (HS 578T breast) was 3610 nM, the GI50 (T-47D breast) was 1600 nM and the TGI (T-47D breast) was 6760 nM. It also gave a GI50 (OVCAR-5 ovarian) of 1760 nM, a TGI (OVCAR-5 ovarian) of 8410 nM and a GI50 (SR leukemia) of 511 nM. It also gave a TGI (SR leukemia) of 1410 nM, a GI50 (OVCAR-4 ovarian) of 531 nM and a TGI (OVCAR-4 ovarian) of 4570 nM. For the same compound, the GI50 (HCT-116 colon) was 674 nM, the TGI (HCT-116 colon) was 3060 nM and the GI50 (MDA-MB-231 breast) was 881 nM. It also gave a TGI (MDA-MB-231 breast) of 5920 nM, a GI50 (SK-OV-3 ovarian) of 1330 nM and a TGI (SK-OV-3 ovarian) of 4580 nM. For the same compound, the GI50 (NCI-H460 lung) was 1020 nM, the TGI (NCI-H460 lung) was 3860 nM and the GI50 (RXF 393 renal) was 1090 nM. It also gave a TGI (RXF 393 renal) of 3730 nM, a GI50 (BT-549 breast) of 1980 nM and a TGI (BT-549 breast) of 5030 nM. It also gave a GI50 (MCF7 breast) of 738 nM, a TGI (MCF7 breast) of 3070 nM and a GI50 (IGROV1 ovarian) of 892 nM. The TGI (IGROV1 ovarian) was 4070 nM, the GI50 (SW-620 colon) was 842 nM and the TGI (SW-620 colon) was 3120 nM. It also gave a GI50 (HCC-2998 colon) of 3370 nM, a TGI (HCC-2998 colon) of 6990 nM and a GI50 (OVCAR-3 ovarian) of 2430 nM. The TGI (OVCAR-3 ovarian) was 8210 nM, the GI50 (SNB-75 CNS) was 2730 nM and the TGI (SNB-75 CNS) was 5770 nM. It also gave a GI50 (K-562 leukemia) of 2.5 nM, a TGI (K-562 leukemia) of 2910 nM and a GI50 (SF-268 CNS) of 2060 nM. For the same compound, the TGI (SF-268 CNS) was 7220 nM, the GI50 (UACC-62 melanoma) was 3040 nM and the TGI (UACC-62 melanoma) was 6760 nM. It also gave a GI50 (SK-MEL-5 melanoma) of 3130 nM, a TGI (SK-MEL-5 melanoma) of 6370 nM and a GI50 (TK-10 renal) of 3430 nM. It also gave a TGI (TK-10 renal) of 8210 nM, a GI50 (COLO 205 colon) of 561 nM and a TGI (COLO 205 colon) of 1390 nM. For the same compound, the GI50 (MALME-3M melanoma) was 772 nM, the TGI (MALME-3M melanoma) was 3600 nM and the GI50 (SF-295 CNS) was 1350 nM. The TGI (SF-295 CNS) was 4750 nM, the GI50 (M14 melanoma) was 1010 nM and the TGI (M14 melanoma) was 3980 nM. The GI50 (CCRF-CEM leukemia) was 962 nM, the TGI (CCRF-CEM leukemia) was 8300 nM and the GI50 (ACHN renal) was 967 nM. For the same compound, the TGI (ACHN renal) was 3800 nM, the GI50 (CAKI-1 renal) was 913 nM and the TGI (CAKI-1 renal) was 3990 nM. It also gave a GI50 (SN12C renal) of 1260 nM, a TGI (SN12C renal) of 4410 nM and a GI50 (SNB-19 CNS) of 3090 nM. It also gave a TGI (SNB-19 CNS) of 8440 nM, a GI50 (SF-539 CNS) of 471 nM and a TGI (SF-539 CNS) of 1910 nM. For the same compound, the GI50 (HL-60(TB) leukemia) was 845 nM, the TGI (HL-60(TB) leukemia) was 2760 nM and the GI50 (A549 NSCLC) was 1350 nM. For the same compound, the TGI (A549 NSCLC) was 5480 nM, the GI50 (PC-3 prostate) was 1270 nM and the TGI (PC-3 prostate) was 8650 nM. It also gave a GI50 (LOX IMVI melanoma) of 1270 nM and a TGI (LOX IMVI melanoma) of 4550 nM.

From PubChem BioAssay (NCI)
